The values below come from patent US20150274719A1, “AMINO-SUBSTITUTED IMIDAZO[1,2-A]PYRIDINECARBOXAMIDES AND THEIR USE” (BAYER PHARMA AKTIENGESELLSCHAFT, priority 2012, published 2015).

A short description of series [1]: Determination of pharmacokinetic parameters following intravenous and oral administration (rats). It counts as in vivo, male Wistar rats. To be noted: intravenous administration in rats. The procedure: B-6. Determination of Pharmacokinetic Parameters Following Intravenous and Oral Administration
The pharmacokinetic parameters of the compounds according to the invention are determined in male CD-1 mice, male Wistar rats and female beagles. Intravenous administration in the case of mice and rats is carried out by means of a species-specific plasma/DMSO formulation, and in the case of dogs by means of a water/PEG400/ethanol formulation. In all species, oral administration of the dissolved substance is performed via gavage, based on a water/PEG400/ethanol formulation. The taking of blood from rats is simplified by inserting a silicone catheter into the right Vena jugularis externa prior to substance administration. The operation is carried out at least one day prior to the experiment with […] and administration of an analgesic (atropin/Rimadyl (3/1) 0.1 ml s.c.). The blood is taken (generally more than 10 time points) within a time window including terminal time points of at least 24 to a maximum of 72 hours after substance administration. When the blood is taken, it is passed into heparinised tubes. Then the blood plasma is obtained by centrifugation and is optionally stored at −20° C. until further processing.
An internal standard (which may also be a chemically unrelated substance) is added to the samples of the compounds according to the invention, calibration samples and qualifiers, and there follows protein precipitation by means of excess acetone. Addition of a buffer solution matched to the LC conditions, and subsequent vortexing, is followed by centrifugation at 1000 g. The supernatant is analysed by LC-MS/MS using C18 reversed-phase columns and variable mobile phase mixtures. The substances are quantified via the peak heights or areas from extracted ion chromatograms of specific selected ion monitoring experiments.
The plasma concentration/time plots determined are used to calculate the pharmacokinetic parameters such as AUC, Cmax, t1/2 (terminal half life), F (bioavailability), MRT (mean residence time) and CL (clearance), using a validated pharmacokinetic calculation program.
Since the substance quantification is carried out in plasma, it is necessary to determine the blood/plasma distribution of the substance in order to be able to adjust the pharmacokinetic parameters correspondingly. For this purpose, a defined amount of substance is incubated in heparinized whole blood of the species in question in a rocking roller mixture for 20 min. After centrifugation at 1000 g, the plasma concentration is measured (by means of LC-MS/MS; see above) and determined by calculating the ratio of the Cblood/Cplasma value.

The target in series [2] is T1, recombinant guanylate cyclase reporter cell line (Rattus norvegicus, UniProt P19686+P20595).
T1 construct: expressed in transfected cells; host or cells: recombinant reporter cell line
T1 sequence (P19686 1-690): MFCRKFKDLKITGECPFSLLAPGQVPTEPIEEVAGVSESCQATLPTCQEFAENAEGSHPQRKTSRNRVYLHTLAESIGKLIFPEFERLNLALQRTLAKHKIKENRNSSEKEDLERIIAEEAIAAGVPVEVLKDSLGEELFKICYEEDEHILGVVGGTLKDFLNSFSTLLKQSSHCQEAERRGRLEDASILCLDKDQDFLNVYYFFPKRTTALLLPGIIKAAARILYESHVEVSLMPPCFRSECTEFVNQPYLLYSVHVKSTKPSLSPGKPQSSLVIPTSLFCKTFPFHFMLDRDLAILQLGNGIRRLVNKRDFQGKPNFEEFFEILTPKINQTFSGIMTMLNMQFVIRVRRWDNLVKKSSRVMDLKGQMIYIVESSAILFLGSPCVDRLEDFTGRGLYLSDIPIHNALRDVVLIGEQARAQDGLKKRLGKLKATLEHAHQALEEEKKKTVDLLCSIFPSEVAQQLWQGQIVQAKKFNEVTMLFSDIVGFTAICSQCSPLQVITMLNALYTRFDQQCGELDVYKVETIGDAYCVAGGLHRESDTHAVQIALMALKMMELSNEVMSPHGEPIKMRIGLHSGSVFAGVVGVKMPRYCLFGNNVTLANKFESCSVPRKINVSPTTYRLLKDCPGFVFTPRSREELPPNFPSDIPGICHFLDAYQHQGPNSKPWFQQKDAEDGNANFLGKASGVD
T1 sequence (P20595 1-619): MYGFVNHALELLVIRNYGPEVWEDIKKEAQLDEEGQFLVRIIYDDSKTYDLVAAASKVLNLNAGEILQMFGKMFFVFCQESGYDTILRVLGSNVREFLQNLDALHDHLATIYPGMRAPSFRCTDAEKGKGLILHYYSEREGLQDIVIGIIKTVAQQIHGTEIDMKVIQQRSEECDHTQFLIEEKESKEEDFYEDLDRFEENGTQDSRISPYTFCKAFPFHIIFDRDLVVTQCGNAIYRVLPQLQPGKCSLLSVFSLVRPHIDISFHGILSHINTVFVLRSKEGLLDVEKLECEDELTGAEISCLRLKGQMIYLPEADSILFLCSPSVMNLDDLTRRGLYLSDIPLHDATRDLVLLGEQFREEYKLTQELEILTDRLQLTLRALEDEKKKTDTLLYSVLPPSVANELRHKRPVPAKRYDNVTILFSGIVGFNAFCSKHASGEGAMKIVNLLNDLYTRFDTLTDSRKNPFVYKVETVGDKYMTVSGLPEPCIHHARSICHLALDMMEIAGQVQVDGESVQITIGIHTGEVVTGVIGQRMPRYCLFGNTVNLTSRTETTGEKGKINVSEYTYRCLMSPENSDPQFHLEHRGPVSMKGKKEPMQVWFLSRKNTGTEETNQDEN
Put plainly: Action on recombinant guanylate cyclase reporter cell line. Type of series: cell-based. To be noted: in some cases mean values from individual determinations. The essentials:
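Cellular activity was measured in a reporter cell line expressing recombinant guanylate cyclase. Values are given as MEC, the minimal effective concentration, and some are means of individual determinations.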

The mark [3] stands for this setting: male, Wistar, rat, plasma, iv, read-out: MRT.

Counter-ions that a name gives are not always drawn. Like-named read-outs stand apart in the source and are kept apart here.

For the molecule `CCC(C)(N)CNC(=O)c1c(C)nc2c(OCc3c(F)ccc(F)c3F)cc(C)cn12` (single isomer, unassigned; enantiomer b) [Example 275, ent-N-(2-Amino-2-methylbutyl)-2,6-dimethyl-8-[(2,3,6-trifluorobenzyl)oxy]imidazo[1,2-a]-pyridine-3-carboxamide (Enantiomer B)], in series [1], the AUCnorm is 0.64 kg·h/L; the CLblood stood at 20.8 mL/min/kg; the mean residence time (MRT) (in general, a mean duration of stay, worked out from the concentration-time curve) is on record as 7.2 h; the t1/2 is 4.1 h. In series [2], the “MEC (minimal effective concentration)” value amounted to 0.10 µM.

`Cc1nc2c(OCc3c(F)cccc3F)cc(C(F)F)cn2c1C(=O)NCC(C)(N)CF` (single isomer, unassigned; enantiomer a) [Example 291, ent-N-(2-amino-3-fluoro-2-methylpropyl)-8-[(2,6-difluorobenzyl)oxy]-6-(difluoromethyl)-2-methylimidazo[1,2-a]pyridine-3-carboxamide (Enantiomer A)]: in series [1], the AUCnorm was 0.87 kg·h/L and the CLblood came out at 14 mL/min/kg. Besides, the half-life (in general, how long it takes for the measured level to halve) in series [1] (male, Wistar, rat, plasma, iv) was 4.8 h. For the same molecule, the mean residence time MRT in series [1] (setting [3]) came to 5.7 h. The “MEC (minimal effective concentration)” value in series [2] amounted to 1.0 µM.

In series [1], `Cc1cc(OCc2c(F)ccc(F)c2F)c2nc(C)c(C(=O)NCC(C)(C)N)n2c1` [Example 276, N-(2-Amino-2-methylpropyl)-2,6-dimethyl-8-[(2,3,6-trifluorobenzyl)oxy]imidazo[1,2-a]pyridine-3-carboxamide] yielded an AUCnorm of 0.70 kg·h/L and a CLblood of 21.2 mL/min/kg. This molecule also gave a half-life in series [1] (male, Wistar, rat, plasma, iv) of 2.9 h. Further, in series [1] (setting [3]), the MRT amounted to 4.5 h. Further, the “MEC (minimal effective concentration)” value in series [2] came out at 0.10 µM.

In series [1], `CCC(C)(N)CNC(=O)c1c(C)nc2c(OCc3c(F)cccc3F)cc(Cl)cn12` (single isomer, unassigned) [Example 194, ent-N-(2-Amino-2-methylbutyl)-6-chloro-8-[(2,6-difluorobenzyl)oxy]-2-methylimidazo[1,2-a]-pyridine-3-carboxamide] yielded an AUCnorm of 2.06 kg·h/L and a CLblood of 8 mL/min/kg. The half-life in series [1] (male, Wistar, rat, plasma, iv) was 16.8 h. Also, the MRT in series [1] (setting [3]) stood at 24.4 h. In addition, the “MEC (minimal effective concentration)” value in series [2] came out at 0.10 µM.

Turning to `Cc1nc2c(OCc3c(F)cccc3F)cc(Cl)cn2c1C(=O)NCC(C)(C)N` [Example 73, N-(2-Amino-2-methylpropyl)-6-chloro-8-[(2,6-difluorobenzyl)oxy]-2-methylimidazo[1,2-a]-pyridine-3-carboxamide], in series [1], the AUCnorm stood at 1.55 kg·h/L and the CLblood is 8.5 mL/min/kg. The molecule further had a half-life in series [1] (male, Wistar, rat, plasma, iv) of 8.6 h. Further, the MRT in series [1] (setting [3]) was found to be 11.8 h. For the same molecule, the “MEC (minimal effective concentration)” value in series [2] came to 0.30 µM.

In series [1], `Cc1nc2c(OCc3c(F)cccc3F)cc(Cl)cn2c1C(=O)NCC1(N)CCC1` [Example 155, N-[(1-aminocyclobutyl)methyl]-6-chloro-8-[(2,6-difluorobenzyl)oxy]-2-methylimidazo[1,2-a]-pyridine-3-carboxamide trifluoroacetate] had an AUCnorm of 0.97 kg·h/L and a CLblood of 21.2 mL/min/kg. The molecule also had a half-life in series [1] (male, Wistar, rat, plasma, iv) of 7.7 h. Further, the MRT in series [1] (setting [3]) was 11.2 h. Besides, the “MEC (minimal effective concentration)” value in series [2] came to 0.30 µM.

In series [1], `CCC(C)(N)CNC(=O)c1c(C)nc2c(OCc3c(F)ccc(F)c3F)cc(C)cn12` (single isomer, unassigned; enantiomer a) [Example 274, ent-N-(2-Amino-2-methylbutyl)-2,6-dimethyl-8-[(2,3,6-trifluorobenzyl)oxy]imidazo[1,2-a]-pyridine-3-carboxamide (Enantiomer A)] came in with an AUCnorm of 1.29 kg·h/L and a CLblood of 11.5 mL/min/kg. In series [1] (male, Wistar, rat, plasma, iv), the half-life is 5.8 h. For the same molecule, the MRT in series [1] (setting [3]) came out at 8.4 h. In series [2], the “MEC (minimal effective concentration)” value was found to be 0.10 µM.

With `Cc1cc(OCc2c(F)cccc2F)c2nc(C)c(C(=O)NCC(C)(N)CF)n2c1` (single isomer, unassigned; enantiomer a) [Example 283, ent-N-(2-amino-3-fluoro-2-methylpropyl)-8-[(2,6-difluorobenzyl)oxy]-2,6-dimethylimidazo[1,2-a]pyridine-3-carboxamide (Enantiomer A)], in series [1], the AUCnorm is 0.67 kg·h/L and the CLblood was determined as 14.5 mL/min/kg. Further, the half-life in series [1] (male, Wistar, rat, plasma, iv) was 3.1 h. Besides, in series [1] (setting [3]), the MRT was 3.9 h. Also, in series [2], the “MEC (minimal effective concentration)” value worked out at 0.3 µM.

As to `Cc1cc(OCc2c(F)cccc2F)c2nc(C)c(C(=O)NCC(C)(N)CF)n2c1` (racemic) [Example 282, rac-N-(2-amino-3-fluoro-2-methylpropyl)-8-[(2,6-difluorobenzyl)oxy]-2,6-dimethylimidazo[1,2-a]pyridine-3-carboxamide Formate], in series [1], the AUCnorm was 0.73 kg·h/L and the CLblood was 23.5 mL/min/kg. In addition, the half-life in series [1] (male, Wistar, rat, plasma, iv) is 4.5 h. Further, the MRT in series [1] (setting [3]) turned out to be 5.7 h. Also, the “MEC (minimal effective concentration)” value in series [2] is 0.3 µM.

In series [1], `Cc1cc(OCc2c(F)cccc2F)c2nc(C)c(C(=O)NCC(C)(N)CCC(F)(F)F)n2c1` (single isomer, unassigned) [Example 408, ent-N-(2-amino-5,5,5-trifluoro-2-methylpentyl)-8-[(2,6-difluorobenzyl)oxy]-2,6-dimethylimidazo[1,2-a]pyridine-3-carboxamide] yielded an AUCnorm of 0.19 kg·h/L and a CLblood of 51.2 mL/min/kg. Also, the half-life in series [1] (male, Wistar, rat, plasma, iv) is 3.8 h. Also, the MRT in series [1] (setting [3]) stood at 4.7 h. Moreover, the “MEC (minimal effective concentration)” value in series [2] was determined as 0.10 µM.

In series [1], `CCC(C)(N)CNC(=O)c1c(C)nc2c(OCc3c(F)cccc3F)cc(OC)cn12` (single isomer, unassigned; enantiomer a) [Example 279, ent-N-(2-amino-2-methylbutyl)-8-[(2,6-difluorobenzyl)oxy]-6-methoxy-2-methylimidazo[1,2-a]pyridine-3-carboxamide (Enantiomer A)] registered an AUCnorm of 0.42 kg·h/L and a CLblood of 46 mL/min/kg. This molecule also gave a half-life in series [1] (male, Wistar, rat, plasma, iv) of 2.3 h. The MRT in series [1] (setting [3]) came to 2.9 h. In addition, the “MEC (minimal effective concentration)” value in series [2] worked out at 0.3 µM.
